The values that follow come from PubChem BioAssay (NCI).

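Compound exposure: 48 hours, 5 concentrations, 96-well plates. The concentration for 50% growth inhibition is given as GI50. The concentration for full growth arrest is given as TGI.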

What all share (assay): NCI anticancer screen, dose series, 48 h
The test system of experiment [1] is SNB-75 CNS.
Experiment [2] deals with OVCAR-3 ovarian.
Experiment [3] deals with SK-MEL-28 melanoma.
For experiment [4], the system named is NCI-H522 lung.
In experiment [5] the test system is SW-620 colon.
Experiment [6] has as its system COLO 205 colon.
Experiment [7] deals with NCI/ADR-RES ovarian.
Experiment [8] has as its system HL-60(TB) leukemia.
Experiment [9] has as its system BT-549 breast.
Experiment [10] concerns OVCAR-8 ovarian.

For `CC(=O)N1N=C(c2ccc(Nc3nc(Nc4ccc(Cl)cc4)nc(Nc4ccc(Cl)cc4)n3)cc2)CC1c1ccc([N+](=O)[O-])cc1` (centres undefined), the GI50 was 3.71 µM in [1]; 5.93 µM in experiment [2]; 8.79 µM in experiment [3]; 6.39 µM in experiment [4]; 8.77 µM in experiment [5]; 1.82 µM in experiment [6]. Moreover, the GI50 is 5.41 µM in experiment [7], 6.15 µM in experiment [8], 10.6 µM in [9] and 8.54 µM in experiment [10]. Moreover, the TGI in experiment [1] was over 54.6 µM; in experiment [2], 25.6 µM; in experiment [3], 74.4 µM; in experiment [4], over 100 µM; in [5] it was over 100 µM; in experiment [6], 6.64 µM. Besides, the TGI in [7] is over 70.4 µM; in [8] it was 24.4 µM; in experiment [9], 88.9 µM; in experiment [10], over 100 µM.

As to `CCC[CH2][Sn]([CH2]CCC)([O]C(=O)c1cc(F)ccc1F)[O][Sn]([CH2]CCC)([CH2]CCC)[O]C(=O)c1cc(F)ccc1F`, the GI50 was 0.365 µM in experiment [1]; 0.512 µM in experiment [2]; 0.169 µM in experiment [3]; 0.116 µM in [5]; 0.413 µM in experiment [6]; 0.522 µM in experiment [7]. Moreover, the figures for the GI50 in experiment [8], in experiment [9] and in experiment [10] were 0.139 µM, 0.225 µM and 0.374 µM, respectively. In addition, the TGI in [1] was determined as 1.66 µM; in experiment [2], 1.61 µM; in [3], 0.497 µM; in experiment [4], 0.0658 µM; in [5], 0.274 µM; in [6], 1.2 µM. Besides, the TGI in experiment [7] came to 1.88 µM; in [8] it was 2.6 µM; in experiment [9] it was 0.946 µM; in experiment [10] it was 1.57 µM.

For `CCOC(=O)c1sc2ncn(Cc3cccc(Br)c3)c(=O)c2c1C`, the GI50 was 69.2 µM in experiment [1]; 39.7 µM in experiment [2]; 71.6 µM in [3]; 9.7 µM in experiment [4]; 97.6 µM in [5]; 61.5 µM in experiment [6]. In addition, the GI50 in experiment [7] is 18.9 µM; in experiment [8] it was 28.7 µM; in experiment [9], 28.7 µM; in experiment [10], 51.1 µM. The TGI in experiment [1] was over 100 µM; in experiment [2], over 100 µM; in [3], over 100 µM; in [4] it was 65.8 µM; in experiment [5], over 100 µM; in experiment [6], over 100 µM. Further, the TGI in experiment [7], in experiment [8], in experiment [9] and in experiment [10] was over 100 µM throughout.

`O=c1c2c3c(sc2n2c(-c4cc(-c5ccccc5)no4)nnc2n1Cc1ccccc1)CCCC3`: the GI50 in experiment [1] is 11.2 µM; in [2], 8.61 µM; in experiment [3], 22.9 µM; in experiment [4], 3.4 µM; in experiment [5], 31.4 µM; in experiment [6], 1.23 µM. In addition, the GI50 in experiment [7] is 30.2 µM; in experiment [8], 4.65 µM; in experiment [9], 13.7 µM; in experiment [10], 21.4 µM. For the same molecule, the TGI in experiment [1] was over 100 µM; in [2] it was 30.5 µM; in experiment [3], 76 µM; in [4] it was 28.1 µM; in experiment [5], over 100 µM; in experiment [6] it was over 40.7 µM. Moreover, the TGI was over 100 µM in [7], 29.9 µM in experiment [8], 63.2 µM in [9] and over 100 µM in experiment [10].
